From the kinase profiling compilation of Christmann-Franck et al. (2016)

What was measured:
Experiment in all cases: KINOMEscan competition binding
Settings in all cases: compound 10.0 µM
CSNK1E (human) = CSNK1E (human) (UniProt P49674)
PIM2 (human) = PIM2 (human) (UniProt Q9P1W9)
IKBKB (human) = IKBKB (human) (UniProt O14920)
MARK2 (human) = MARK2 (human) (UniProt Q7KZI7)
RIPK2 (human) = RIPK2 (human) (UniProt O43353)
MAP3K3 (human) = MAP3K3 (human) (UniProt Q99759)
MAP4K5 (human) = MAP4K5 (human) (UniProt Q9Y4K4)
EPHA8 (human) = EPHA8 (human) (UniProt P29322)
TNIK (human) = TNIK (human) (UniProt Q9UKE5)
PDGFRB (human) = PDGFRB (human) (UniProt P09619)
STK25 (human) = STK25 (human) (UniProt O00506)
PDPK1 (human) = PDPK1 (human) (UniProt O15530)
MAPK3 (human) = MAPK3 (human) (UniProt P27361)
NUAK2 (human) = NUAK2 (human) (UniProt Q9H093)
TEK (human) = TEK (human) (UniProt Q02763)
MYO3A (human) = MYO3A (human) (UniProt Q8NEV4)
RIPK1 (human) = RIPK1 (human) (UniProt Q13546)
IKBKE (human) = IKBKE (human) (UniProt Q14164)
AXL (human) = AXL (human) (UniProt P30530)
PRKD1 (human) = PRKD1 (human) (UniProt Q15139)
NEK5 (human) = NEK5 (human) (UniProt Q6P3R8)
PLK4 (human) = PLK4 (human) (UniProt O00444)
EPHA2 (human) = EPHA2 (human) (UniProt P29317)
RPS6KA1 KD2 (human) = RPS6KA1 KD2 (human) (UniProt Q15418)
SRMS (human) = SRMS (human) (UniProt Q9H3Y6)
SLK (human) = SLK (human) (UniProt Q9H2G2)
CDK14 (human) = CDK14 (human) (UniProt O94921)
[1] = biological target: JAK1 JH1 catalytic (human) (UniProt P23458)
BRSK2 (human) = BRSK2 (human) (UniProt Q8IWQ3)
CDK5 (human) = CDK5 (human) (UniProt Q00535)
CLK2 (human) = CLK2 (human) (UniProt P49760)
RPS6KA2 KD2 (human) = RPS6KA2 KD2 (human) (UniProt Q15349)
MAPKAPK5 (human) = MAPKAPK5 (human) (UniProt Q8IW41)
MAP2K2 (human) = MAP2K2 (human) (UniProt P36507)
CDK9 (human) = CDK9 (human) (UniProt P50750)
PAK3 (human) = PAK3 (human) (UniProt O75914)
LYN (human) = LYN (human) (UniProt P07948)
MAPK12 (human) = MAPK12 (human) (UniProt P53778)
LCK (human) = LCK (human) (UniProt P06239)
TNNI3K (human) = TNNI3K (human) (UniProt Q59H18)

Chain of PAK3 (human) (O75914 whole entry, looked up): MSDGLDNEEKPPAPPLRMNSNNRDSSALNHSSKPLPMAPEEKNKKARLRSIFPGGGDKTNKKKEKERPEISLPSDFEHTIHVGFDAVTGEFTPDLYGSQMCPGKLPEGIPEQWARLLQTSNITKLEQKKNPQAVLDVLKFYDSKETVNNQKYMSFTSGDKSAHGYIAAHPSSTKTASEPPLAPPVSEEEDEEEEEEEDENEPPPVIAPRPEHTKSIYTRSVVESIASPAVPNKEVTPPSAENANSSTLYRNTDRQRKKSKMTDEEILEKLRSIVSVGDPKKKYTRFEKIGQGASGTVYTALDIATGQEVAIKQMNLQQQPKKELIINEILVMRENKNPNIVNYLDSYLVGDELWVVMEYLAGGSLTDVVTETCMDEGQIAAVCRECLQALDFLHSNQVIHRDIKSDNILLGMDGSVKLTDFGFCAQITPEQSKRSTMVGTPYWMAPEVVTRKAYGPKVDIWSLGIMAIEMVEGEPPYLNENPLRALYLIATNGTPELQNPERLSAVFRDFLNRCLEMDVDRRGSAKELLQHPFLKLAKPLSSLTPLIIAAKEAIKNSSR
Chain of CDK14 (human) (O94921 whole entry, looked up): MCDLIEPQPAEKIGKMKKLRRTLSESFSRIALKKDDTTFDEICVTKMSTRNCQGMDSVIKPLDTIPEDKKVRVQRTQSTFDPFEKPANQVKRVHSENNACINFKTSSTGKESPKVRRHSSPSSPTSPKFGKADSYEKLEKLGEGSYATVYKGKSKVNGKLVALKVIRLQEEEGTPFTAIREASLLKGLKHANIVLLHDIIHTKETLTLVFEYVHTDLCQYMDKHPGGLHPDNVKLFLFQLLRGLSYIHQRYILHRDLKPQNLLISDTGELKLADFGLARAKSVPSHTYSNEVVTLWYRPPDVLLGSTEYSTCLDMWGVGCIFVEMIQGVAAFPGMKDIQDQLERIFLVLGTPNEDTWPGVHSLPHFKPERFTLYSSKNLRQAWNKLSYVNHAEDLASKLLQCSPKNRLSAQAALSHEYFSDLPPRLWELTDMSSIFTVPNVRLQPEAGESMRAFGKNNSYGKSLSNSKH
Chain of EPHA2 (human) (P29317 whole entry, looked up): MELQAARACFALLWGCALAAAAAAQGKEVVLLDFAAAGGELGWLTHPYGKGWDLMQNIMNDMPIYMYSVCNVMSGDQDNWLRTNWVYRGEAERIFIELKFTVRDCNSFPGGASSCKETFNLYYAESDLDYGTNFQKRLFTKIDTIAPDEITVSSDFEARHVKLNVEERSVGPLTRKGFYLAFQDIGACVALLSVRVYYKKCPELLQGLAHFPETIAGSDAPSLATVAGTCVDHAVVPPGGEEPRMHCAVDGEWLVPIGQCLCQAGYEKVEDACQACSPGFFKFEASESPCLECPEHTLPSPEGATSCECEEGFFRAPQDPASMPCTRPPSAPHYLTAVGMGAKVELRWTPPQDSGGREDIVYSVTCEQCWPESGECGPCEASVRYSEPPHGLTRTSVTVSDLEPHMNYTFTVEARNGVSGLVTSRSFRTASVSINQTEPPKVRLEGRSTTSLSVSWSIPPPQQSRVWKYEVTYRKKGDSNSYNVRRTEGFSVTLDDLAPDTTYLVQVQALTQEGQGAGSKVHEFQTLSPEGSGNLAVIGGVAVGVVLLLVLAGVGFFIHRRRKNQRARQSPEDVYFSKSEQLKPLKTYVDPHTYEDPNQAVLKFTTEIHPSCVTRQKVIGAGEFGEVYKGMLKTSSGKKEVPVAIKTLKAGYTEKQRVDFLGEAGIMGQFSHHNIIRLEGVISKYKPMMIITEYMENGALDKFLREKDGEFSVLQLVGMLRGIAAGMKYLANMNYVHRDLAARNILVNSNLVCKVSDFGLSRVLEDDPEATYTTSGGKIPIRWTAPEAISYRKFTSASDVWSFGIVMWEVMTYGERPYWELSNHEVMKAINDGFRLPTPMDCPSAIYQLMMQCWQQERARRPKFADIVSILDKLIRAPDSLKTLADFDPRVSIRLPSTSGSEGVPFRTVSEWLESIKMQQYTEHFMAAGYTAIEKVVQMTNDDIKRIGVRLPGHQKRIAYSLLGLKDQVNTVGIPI
Chain of IKBKB (human) (O14920 whole entry, looked up): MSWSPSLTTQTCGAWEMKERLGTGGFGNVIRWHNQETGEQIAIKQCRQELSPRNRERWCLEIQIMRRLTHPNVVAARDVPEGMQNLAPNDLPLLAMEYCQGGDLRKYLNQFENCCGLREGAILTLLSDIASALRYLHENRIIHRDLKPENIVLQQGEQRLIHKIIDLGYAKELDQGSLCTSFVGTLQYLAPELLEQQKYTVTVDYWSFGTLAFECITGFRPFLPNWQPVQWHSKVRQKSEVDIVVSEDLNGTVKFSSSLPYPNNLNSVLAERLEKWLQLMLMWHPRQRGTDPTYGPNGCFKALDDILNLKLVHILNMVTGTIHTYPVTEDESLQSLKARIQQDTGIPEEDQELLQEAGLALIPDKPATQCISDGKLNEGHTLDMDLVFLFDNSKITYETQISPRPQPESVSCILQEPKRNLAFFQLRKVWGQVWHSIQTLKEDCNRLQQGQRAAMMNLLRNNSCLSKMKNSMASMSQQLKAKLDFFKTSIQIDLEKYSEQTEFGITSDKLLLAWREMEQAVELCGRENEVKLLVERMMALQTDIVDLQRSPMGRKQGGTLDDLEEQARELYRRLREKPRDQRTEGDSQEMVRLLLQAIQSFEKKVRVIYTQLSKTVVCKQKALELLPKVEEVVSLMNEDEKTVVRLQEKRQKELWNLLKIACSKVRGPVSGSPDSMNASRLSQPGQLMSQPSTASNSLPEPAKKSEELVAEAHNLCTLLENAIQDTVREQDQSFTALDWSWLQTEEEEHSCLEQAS
Chain of MARK2 (human) (Q7KZI7 whole entry, looked up): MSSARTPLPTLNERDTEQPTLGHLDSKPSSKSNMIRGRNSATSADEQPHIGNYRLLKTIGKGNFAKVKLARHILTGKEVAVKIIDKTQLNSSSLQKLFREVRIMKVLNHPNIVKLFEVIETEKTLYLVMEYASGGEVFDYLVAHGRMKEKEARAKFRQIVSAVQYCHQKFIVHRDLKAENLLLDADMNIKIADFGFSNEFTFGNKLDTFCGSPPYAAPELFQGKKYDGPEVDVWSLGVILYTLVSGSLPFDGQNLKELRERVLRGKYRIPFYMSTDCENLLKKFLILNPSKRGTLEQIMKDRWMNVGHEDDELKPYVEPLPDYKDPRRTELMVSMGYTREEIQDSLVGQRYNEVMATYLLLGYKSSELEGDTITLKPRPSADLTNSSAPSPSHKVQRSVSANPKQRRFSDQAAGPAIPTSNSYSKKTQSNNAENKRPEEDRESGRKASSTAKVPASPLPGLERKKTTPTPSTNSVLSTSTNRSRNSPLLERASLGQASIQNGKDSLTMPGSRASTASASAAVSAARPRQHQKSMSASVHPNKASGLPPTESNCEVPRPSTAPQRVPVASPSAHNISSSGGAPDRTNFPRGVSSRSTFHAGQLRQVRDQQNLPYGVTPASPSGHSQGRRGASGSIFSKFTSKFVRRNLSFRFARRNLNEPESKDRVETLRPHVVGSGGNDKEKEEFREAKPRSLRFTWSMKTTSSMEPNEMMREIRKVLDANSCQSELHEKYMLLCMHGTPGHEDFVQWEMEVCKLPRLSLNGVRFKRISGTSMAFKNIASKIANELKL
Chain of CLK2 (human) (P49760 whole entry, looked up): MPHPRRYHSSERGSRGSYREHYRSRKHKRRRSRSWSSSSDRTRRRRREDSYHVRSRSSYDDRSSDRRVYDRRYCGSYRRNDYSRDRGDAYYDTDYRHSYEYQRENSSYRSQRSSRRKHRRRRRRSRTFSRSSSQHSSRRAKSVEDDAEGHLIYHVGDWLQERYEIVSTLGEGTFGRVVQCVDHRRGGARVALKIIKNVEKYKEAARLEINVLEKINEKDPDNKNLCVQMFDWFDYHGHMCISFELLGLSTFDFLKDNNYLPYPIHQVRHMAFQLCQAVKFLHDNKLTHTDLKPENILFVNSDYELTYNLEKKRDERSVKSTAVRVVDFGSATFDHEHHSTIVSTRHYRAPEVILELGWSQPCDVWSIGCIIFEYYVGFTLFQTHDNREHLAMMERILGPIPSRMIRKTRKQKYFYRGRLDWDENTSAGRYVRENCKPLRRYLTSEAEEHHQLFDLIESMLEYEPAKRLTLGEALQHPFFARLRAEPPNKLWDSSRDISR
Chain of CDK9 (human) (P50750 whole entry, looked up): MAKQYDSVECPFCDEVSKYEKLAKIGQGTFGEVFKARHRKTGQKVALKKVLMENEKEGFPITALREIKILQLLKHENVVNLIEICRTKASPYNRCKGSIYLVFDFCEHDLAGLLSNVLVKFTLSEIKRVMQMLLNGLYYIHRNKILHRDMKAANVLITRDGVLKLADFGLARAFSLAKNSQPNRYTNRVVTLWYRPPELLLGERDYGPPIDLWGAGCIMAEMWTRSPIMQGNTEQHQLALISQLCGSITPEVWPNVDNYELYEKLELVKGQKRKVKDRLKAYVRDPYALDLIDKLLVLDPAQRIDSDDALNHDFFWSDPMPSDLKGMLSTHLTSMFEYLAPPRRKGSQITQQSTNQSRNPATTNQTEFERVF
Chain of RIPK2 (human) (O43353 whole entry, looked up): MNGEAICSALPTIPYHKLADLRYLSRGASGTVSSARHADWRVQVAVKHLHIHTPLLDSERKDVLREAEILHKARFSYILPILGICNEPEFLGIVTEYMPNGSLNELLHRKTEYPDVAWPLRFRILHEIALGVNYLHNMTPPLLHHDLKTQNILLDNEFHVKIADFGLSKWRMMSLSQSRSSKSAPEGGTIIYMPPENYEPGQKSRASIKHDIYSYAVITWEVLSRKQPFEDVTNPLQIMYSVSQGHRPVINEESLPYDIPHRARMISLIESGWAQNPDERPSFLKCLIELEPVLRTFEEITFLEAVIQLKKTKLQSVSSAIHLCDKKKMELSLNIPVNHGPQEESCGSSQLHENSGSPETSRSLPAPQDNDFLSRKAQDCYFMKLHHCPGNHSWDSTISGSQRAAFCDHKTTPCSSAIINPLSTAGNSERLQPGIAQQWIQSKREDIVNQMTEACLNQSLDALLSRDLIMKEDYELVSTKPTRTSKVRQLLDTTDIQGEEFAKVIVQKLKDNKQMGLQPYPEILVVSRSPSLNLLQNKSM

Row | Structure (SMILES) | kinase still bound, per cent of control (CSNK1E (human)) [%] | kinase still bound, per cent of control (PIM2 (human)) [%] | kinase still bound, per cent of control (IKBKB (human)) [%] | kinase still bound, per cent of control (MARK2 (human)) [%] | kinase still bound, per cent of control (RIPK2 (human)) [%] | kinase still bound, per cent of control (MAP3K3 (human)) [%] | kinase still bound, per cent of control (MAP4K5 (human)) [%] | kinase still bound, per cent of control (EPHA8 (human)) [%] | kinase still bound, per cent of control (TNIK (human)) [%] | kinase still bound, per cent of control (PDGFRB (human)) [%] | kinase still bound, per cent of control (STK25 (human)) [%] | kinase still bound, per cent of control (PDPK1 (human)) [%] | kinase still bound, per cent of control (MAPK3 (human)) [%] | kinase still bound, per cent of control (NUAK2 (human)) [%] | kinase still bound, per cent of control (TEK (human)) [%] | kinase still bound, per cent of control (MYO3A (human)) [%] | kinase still bound, per cent of control (RIPK1 (human)) [%] | kinase still bound, per cent of control (IKBKE (human)) [%] | kinase still bound, per cent of control (AXL (human)) [%] | kinase still bound, per cent of control (PRKD1 (human)) [%] | also measured
1 | O=C(NC1CC1)c1cccc(-c2ccc3c(NC(=O)C4CC4)n[nH]c3c2)c1 | 80 | 100 | 78 | 45 | 72 | 85 | 24 | 92 | 25 | 24 | 76 | 81 | 95 | 24 | 54 | 72 | 0.05 | 100 | 54 | 100 | kinase still bound, per cent of control (NEK5 (human)): 60%; kinase still bound, per cent of control (PLK4 (human)): 13%; kinase still bound, per cent of control (EPHA2 (human)): 100%; kinase still bound, per cent of control (RPS6KA1 KD2 (human)): 68%; kinase still bound, per cent of control (SRMS (human)): 93%; kinase still bound, per cent of control (SLK (human)): 100%; kinase still bound, per cent of control (CDK14 (human)): 46%; kinase still bound, per cent of control [1]: 100%; kinase still bound, per cent of control (BRSK2 (human)): 74%; kinase still bound, per cent of control (CDK5 (human)): 60%; kinase still bound, per cent of control (CLK2 (human)): 37%; kinase still bound, per cent of control (RPS6KA2 KD2 (human)): 82%; kinase still bound, per cent of control (MAPKAPK5 (human)): 99%; kinase still bound, per cent of control (MAP2K2 (human)): 82%; kinase still bound, per cent of control (CDK9 (human)): 93%; kinase still bound, per cent of control (PAK3 (human)): 60%; kinase still bound, per cent of control (LYN (human)): 83%; kinase still bound, per cent of control (MAPK12 (human)): 24%; kinase still bound, per cent of control (LCK (human)): 100%; kinase still bound, per cent of control (TNNI3K (human)): 92%
2 | C=CC(=O)Nc1cccc(Nc2nc(N[C@H]3CC[C@H](N(C)C)CC3)nc3c2ncn3C(C)C)c1 | 0.1 | 100 | 76 | 57 | 100 | 2.7 | 60 | 100 | 35 | 8.4 | 89 | 100 | 100 | 45 | 95 | 94 | 100 | 95 | 40 | 100 | kinase still bound, per cent of control (NEK5 (human)): 94%; kinase still bound, per cent of control (PLK4 (human)): 85%; kinase still bound, per cent of control (EPHA2 (human)): 60%; kinase still bound, per cent of control (RPS6KA1 KD2 (human)): 67%; kinase still bound, per cent of control (SRMS (human)): 88%; kinase still bound, per cent of control (SLK (human)): 26%; kinase still bound, per cent of control (CDK14 (human)): 98%; kinase still bound, per cent of control [1]: 88%; kinase still bound, per cent of control (BRSK2 (human)): 100%; kinase still bound, per cent of control (CDK5 (human)): 80%; kinase still bound, per cent of control (CLK2 (human)): 0.5%; kinase still bound, per cent of control (RPS6KA2 KD2 (human)): 81%; kinase still bound, per cent of control (MAPKAPK5 (human)): 87%; kinase still bound, per cent of control (MAP2K2 (human)): 100%; kinase still bound, per cent of control (CDK9 (human)): 100%; kinase still bound, per cent of control (PAK3 (human)): 100%; kinase still bound, per cent of control (LYN (human)): 50%; kinase still bound, per cent of control (MAPK12 (human)): 96%; kinase still bound, per cent of control (LCK (human)): 38%; kinase still bound, per cent of control (TNNI3K (human)): 62%
3 | COc1cc(C(=O)NC2CCN(C)CC2)ccc1Nc1ncc2c(n1)N(C1CCCC1)C(C)CC(=O)N2C (stereo not given) | 100 | 100 | 100 | 100 | 100 | 100 | 100 | 100 | 100 | 100 | 100 | 100 | 100 | 100 | 100 | 100 | 100 | 100 | 100 | 100 | kinase still bound, per cent of control (NEK5 (human)): 100%; kinase still bound, per cent of control (PLK4 (human)): 100%; kinase still bound, per cent of control (EPHA2 (human)): 100%; kinase still bound, per cent of control (RPS6KA1 KD2 (human)): 22%; kinase still bound, per cent of control (SRMS (human)): 100%; kinase still bound, per cent of control (SLK (human)): 1.4%; kinase still bound, per cent of control (CDK14 (human)): 100%; kinase still bound, per cent of control [1]: 100%; kinase still bound, per cent of control (BRSK2 (human)): 100%; kinase still bound, per cent of control (CDK5 (human)): 100%; kinase still bound, per cent of control (CLK2 (human)): 6.2%; kinase still bound, per cent of control (RPS6KA2 KD2 (human)): 5.8%; kinase still bound, per cent of control (MAPKAPK5 (human)): 100%; kinase still bound, per cent of control (MAP2K2 (human)): 100%; kinase still bound, per cent of control (CDK9 (human)): 100%; kinase still bound, per cent of control (PAK3 (human)): 100%; kinase still bound, per cent of control (LYN (human)): 100%; kinase still bound, per cent of control (MAPK12 (human)): 100%; kinase still bound, per cent of control (LCK (human)): 100%; kinase still bound, per cent of control (TNNI3K (human)): 100%
